Where “and” joins values, the source holds several entries; their conditions need not be identical. Identical values can stand only once.
Key:
[1] = tested on: CSF1 mRNA; test: RT-qPCR of CSF1 mRNA in human ovarian cancer and melanoma cells; format: cell-based; details: 50 nM, 48 h
[2] = biological target: T1, BRD4 (BD1+BD2) (Homo sapiens, UniProt O60885); test: BRD4 (BD1+BD2) TR-FRET binding assay; details: for Biochemical activity against BRD4 (BD1 + BD2): Fig.1d, replicates
T1 construct: purchased BPS 32612
Text: 2. BRD4 binding assay. The inhibitory effects of NHWD-530, NHWD-540, NHWD- […]
(BPS, Cat # 32612) per manufacturer’s instructions. […]

[3] = Equilibrium dialysis assay, SD rat plasma
Experimental: (§1) The concentration was calculated using the peak area ratio of analyte and internal […]
(§2) The results were calculated by the following equations:
(§3) % Unbound = 100 *FC / TC, % Bound = 100 * (1-FC / TC)
(§4) % Recovery = 100 * (FC + TC) / T0
(§5) TC = Total compound concentration as determined by the calculated concentration on the retentate side of the membrane
(§6) FC = Free compound concentration as determined by the calculated concentration on the dialysate side of the membrane […]
(§7) Equation of first order kinetics: […]
(§8) 8. Equilibrium dialysis assay. Binding with plasma protein and recovery rate of NHWD-870 were performed with human, CD-1 mouse and SD rat plasma as […]
(§9) described 2. […] The concentration was […]
(§10) calculated using the peak area ratio of analyte and internal standard. The results were calculated by the following equations: % Unbound = 100 *FC / TC, % Bound = 100 * (1-FC / TC); % Recovery = 100 * (FC + TC) / T0; TC = Total compound concentration as determined by the calculated concentration on the retentate side of the membrane; FC = Free compound concentration as determined by the (1 picture or pasted object on this page, not shown here) […]
(§11) calculated concentration on the dialysate side of the membrane; T0 = To t a l compound concentration as determined before dialysis. […]
(§12) 10. hERG channel assay. […]
(§13) HEK293 cell line stably

[4] = Equilibrium dialysis assay, human plasma
Experimental: as §1, §2, §3, §4, §5, §6, §7, §8, §9, §10, §11, §12, §13

[5] = tested on: A2780 cells; test: Clonogenic (colony formation) assay, A2780; format: cell-based, human; details: A2780, 250 nM, 5 days
Experimental: Fig. 2 NHWD-870 inhibited BRD4 phosphorylation and c-MYC expression, and suppressed cell growth. a Representative western blot analysis of p-BRD4 (s484/488), BRD4, c-MYC, and GAPDH after treatment of MDA-MB231, SUM159, A2780 ES-2, and H526 cells with JQ-1 or NHWD-870 at the indicated concentrations for 24 h. GAPDH served as the loading control. Selected from three independent experiments. b MTT assays of H526, A2780, ES-2, and MDA-MB231 cells treated with JQ-1 or NHWD-870 at the indicated concentrations for 5 days. Data are presented as mean ± SEM from three independent experiments. c, d Clonogenic assays of H526, A2780, ES-2 and MDA-MB231 cells treated with 250 nM JQ-1 or NHWD-870 for 5 days. Shown are representative images (c) and quantification of colonies (d). […] Shown are representative images (e) and quantification of relative colony sizes (f). Scale bar, 50 μm. Data are presented as mean ± SEM from five independent experiments. p values were calculated using two-tailed, unpaired t tests in this figure. **p < 0.01; ***p < 0.001. Source data are provided as a Source Data file. […]
5. Colony formation assay. Cells were seeded in 6-well plates at 3,000 cells/well […]
every week. […] Colony numbers were calculated with imageJ version

For Cc1nnn(C)c1-c1cnc2c3c4cnn(C)c4ccc3n([C@H](c3ccccc3)C3CCOCC3)c2c1 [NHWD-870], the “relative CSF1 mRNA level” value ([1]; 2780 (A2780)) was 0.0041 and 0.006 and 0.005, the “relative CSF1 mRNA level” value ([1]; YUAME) was 0.0004 and 0.0005 and 0.0003 and the “Biochemical activity against BRD4 (BD1 + BD2)” value (from here on “Biochemical activity”) ([2]; concentration(nM) 0.0021442) was 0.8628 and 1.4579. For the same molecule, the “Biochemical activity” value ([2]; concentration(nM) 0.061236) was 16.5754 and 12.5588, the “Biochemical activity” value ([2]; concentration(nM) 0.103) was 20.2946 and 25.6828 and the “Biochemical activity” value ([2]; concentration(nM) 0.59176) was 60.3038 and 63.4692. For the same molecule, the “Biochemical activity” value ([2]; concentration(nM) 1.19382) was 79.3053 and 83.6424, the “Biochemical activity” value ([2]; concentration(nM) 1.79588) was 95.9066 and 95.1156 and the “Biochemical activity” value ([2]; concentration(nM) 2.39794) was 100.74 and 99.5542. For the same molecule, the “Biochemical activity” value ([2]; concentration(nM) 3) was 101.339 and 101.804, the IC50 ([2]; average IC50, nM, read-out: IC50, biochemical activity against BRD4 (BD1 + BD2)) was 2.7 nM and 2.72 nM and the “% Bound” value ([3]; SD rat plasma, equilibrium dialysis) was 95.4%. The fraction unbound ([3]; SD, rat, plasma) was 0.046, the recovery ([3]; SD, rat, plasma) was 92.5% and the “% Bound” value ([4]; Human plasma, equilibrium dialysis) was 97.5%. For the same molecule, the fraction unbound ([4]; human, plasma) was 0.025, the recovery ([4]; human, plasma) was 92.8% and the “Clone Number (clonogenic assay)” value [5] was 378 and 355 and 313 and 209 and 273.
